Laboratory results: publication doi:10.1101/2022.06.13.495986v1 (biorxiv, 2022)

Target: T1, HepII (Heptosyltransferase II) (Escherichia coli, UniProt P37692)
T1 sequence (P37692 1-348): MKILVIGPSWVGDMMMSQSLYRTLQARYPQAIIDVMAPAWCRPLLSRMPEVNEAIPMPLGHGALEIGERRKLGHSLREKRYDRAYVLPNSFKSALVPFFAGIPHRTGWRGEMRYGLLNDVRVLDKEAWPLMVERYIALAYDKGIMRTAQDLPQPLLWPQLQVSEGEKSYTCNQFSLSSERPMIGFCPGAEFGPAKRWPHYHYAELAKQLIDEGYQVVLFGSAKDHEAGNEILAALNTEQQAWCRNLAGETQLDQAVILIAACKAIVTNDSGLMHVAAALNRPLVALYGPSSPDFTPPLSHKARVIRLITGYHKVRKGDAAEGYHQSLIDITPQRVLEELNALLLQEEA
Test: tryptophan fluorescence quenching
Assay type: binding

Kd: 0.66 ± 0.46 µM
Compound: Nc1ncnc2c1ncn2[C@@H]1O[C@H](COP(=O)(O)OP(=O)(O)O[C@@H]2O[C@H]([C@@H](O)CO)[C@@H](O)[C@H](O)[C@@H]2O)[C@@H](O)[C@H]1O [ADP-Hep]
